Test [1] concerns the target T1, PRMT5 (Homo sapiens, UniProt O14744).
T1 construct: purchased Viva (custom protein)
Description: PRMT5 biochemical IC50 assay with SAM as cofactor. The following applies: PRMT5, SAM as cofactor; read-out: SAM IC50.

For test [2], the target named is T1, PRMT5. The experiment in a line: PRMT5 biochemical IC50 assay with no cofactor. The conditions noted are these: PRMT5, no cofactor; read-out: No Cofactor/rel IC50. The text has this: Table 1 indicates IC50 values (μM) against PRMT5 for exemplary compounds in the presence of SAM as cofactor, with no cofactor, and with MTA as cofactor, respectively (columns 4-6). […] Ki values can be calculated from the IC50 values as described in the Examples section. As detailed in the Examples section, for the assay performed in the presence of SAM, IC50=Ki×1.5 (Ki=IC50/1.5).

In test [3] the target is T1, PRMT5. Description: PRMT5 biochemical IC50 assay with MTA as cofactor. The following applies: PRMT5, MTA as cofactor; read-out: MTA IC50.
For test [4], the system named is HAP1 MTAP-intact cell line. The experiment in a line: SDMA in-cell western assay, HAP1 MTAP-intact. Type of test: cell-based. The following applies: Homo sapiens, HAP1, SDMA in-cell western, HAP1 MTAP-intact; read-out: MTAP HAP1 intact IC50. A digest of the protocol:
(§1)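 Readout: in-cell western detection of SDMA. Cells: HAP1 expressing endogenous MTAP and an MTAP-null HAP1 counterpart. Output: IC50.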

Test [5] relates to HAP1 MTAP-deleted cell line. The experiment in a line: SDMA in-cell western assay, HAP1 MTAP-deleted. Type of test: cell-based. The conditions noted are these: for IC50: Homo sapiens, HAP1, SDMA in-cell western, HAP1 MTAP-deleted; for MTAP intact/deleted ratio: IC50 ratio HAP1 MTAP-intact / HAP1 MTAP-deleted, SDMA in-cell western. A digest of the protocol: as §1
Test [6] deals with HAP1 MTAP-deleted cell line. The experiment in a line: Viability assay, MTAP-deleted cell line. The conditions noted are these: Homo sapiens, read-out: HAP1 MTAP deleted viability. Type of test: cell-based. The text has this: Table 1 additionally indicates IC50 values in a viability assay for the MTAP-deleted cell line (column 10), indicating the effect of treatment with compound on cell survival.

The mark [7] stands for this setting: read-out: HAP 1 MTAP deleted IC50.
The mark [8] stands for this setting: HAP1, viability IC50, MTAP-deleted cell line.
[9] abbreviates: read-out: HAP1 MTAP deleted IC50.
[10] abbreviates: HAP1, viability assay, HAP1 MTAP-deleted.

The text below walks through data of patent US11999727B2 (Tango Therapeutics, Inc., priority 2020, dated 2024).

A value given as a limit tells only on which side of the number the result lay.

T1 sequence (O14744 whole entry): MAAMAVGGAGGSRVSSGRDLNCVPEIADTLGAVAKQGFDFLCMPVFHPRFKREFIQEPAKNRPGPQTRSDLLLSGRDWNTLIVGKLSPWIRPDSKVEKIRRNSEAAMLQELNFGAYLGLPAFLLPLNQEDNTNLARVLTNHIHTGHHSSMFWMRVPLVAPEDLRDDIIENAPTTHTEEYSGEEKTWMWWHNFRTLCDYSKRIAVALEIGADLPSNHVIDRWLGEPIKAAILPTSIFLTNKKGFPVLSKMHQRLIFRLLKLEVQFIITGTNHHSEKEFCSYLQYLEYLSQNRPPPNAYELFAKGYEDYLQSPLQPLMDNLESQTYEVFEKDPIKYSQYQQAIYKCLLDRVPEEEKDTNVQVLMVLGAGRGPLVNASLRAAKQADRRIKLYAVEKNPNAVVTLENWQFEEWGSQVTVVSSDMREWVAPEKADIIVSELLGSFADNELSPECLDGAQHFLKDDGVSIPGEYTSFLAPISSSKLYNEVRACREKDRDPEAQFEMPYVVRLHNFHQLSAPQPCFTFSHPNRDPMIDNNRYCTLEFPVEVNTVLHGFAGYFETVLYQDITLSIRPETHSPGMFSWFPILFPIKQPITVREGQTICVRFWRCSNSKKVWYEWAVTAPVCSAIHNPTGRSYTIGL
T1 sequence (Q9BQA1 whole entry partner): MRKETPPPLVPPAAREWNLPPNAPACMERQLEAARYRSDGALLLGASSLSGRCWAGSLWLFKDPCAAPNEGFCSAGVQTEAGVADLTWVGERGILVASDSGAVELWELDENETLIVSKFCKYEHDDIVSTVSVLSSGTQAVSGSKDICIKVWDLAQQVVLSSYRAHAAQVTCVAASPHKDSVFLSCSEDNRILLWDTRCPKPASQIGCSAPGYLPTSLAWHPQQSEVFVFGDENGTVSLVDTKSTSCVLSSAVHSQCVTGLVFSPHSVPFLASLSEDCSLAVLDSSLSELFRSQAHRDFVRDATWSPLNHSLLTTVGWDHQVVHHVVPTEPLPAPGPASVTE

`Cc1ncc(NC(=O)C(=O)N2C[C@H](C)CC[C@H]2c2ccc3c(c2)CCC(=O)N3)cc1C(F)(F)F` (single isomer, unassigned) [Compound 697]: the IC50 is 0.05 to 0.5 µM on PRMT5 [1]; < 0.05 µM on PRMT5 [2]; < 0.05 µM at PRMT5 [3]; > 1 µM in test [4]; < 0.1 µM in test [5] (setting [7]); < 1 µM in test [6] (setting [8]). In addition, the MTAP intact/deleted ratio entry in test [5] was “A (an IC50 ratio greater than or equal to 10 fold)”.
Take `CCc1cc(NC(=O)C(=O)N2C[C@@H](C)CC[C@@H]2c2ccc3c(c2)C(=O)NC3)cnc1N` (single isomer, unassigned) [Compound 700]: the IC50 at PRMT5 [1] is 0.05 to 0.5 µM; on PRMT5 [2] it was < 0.05 µM; on PRMT5 [3] it was < 0.05 µM; in test [4] it was > 1 µM; in test [5] (setting [7]) it was < 0.1 µM; in test [6] (setting [8]), < 1 µM. Further, the MTAP intact/deleted ratio entry in test [5] is on record as “A (an IC50 ratio greater than or equal to 10 fold)”.
For `Cc1nc2cc([C@H]3CC[C@H](C)CN3C(=O)C(=O)Nc3cncc(C(N)=O)c3)ccc2s1` (single isomer, unassigned) [Compound 702], the IC50 at PRMT5 [1] was > 0.5 µM; at PRMT5 [2] it was > 0.5 µM; at PRMT5 [3], > 0.5 µM; in test [4] it was > 1 µM; in test [5] (setting [7]), > 1 µM; in test [6] (setting [8]), > 10 µM. The MTAP intact/deleted ratio result in test [5] is given as “B (an IC50 ratio greater than or equal to 3 fold but lower than 10 fold)”.
Consider `Cc1cc(NC(=O)C(=O)N2C[C@@H](C)CC[C@@H]2c2ccc(C(F)(F)F)c(Cl)c2)cnc1N` (single isomer, unassigned) [Compound 703], for which the IC50 on PRMT5 [1] is 0.05 to 0.5 µM; on PRMT5 [2], 0.05 to 0.5 µM; on PRMT5 [3] it was < 0.05 µM; in test [4], 0.1 to 1 µM; in test [5] (setting [7]), 0.1 to 1 µM; in test [6] (setting [8]) it was 1 to 10 µM. Also, in test [5], the MTAP intact/deleted ratio result is on record as “C (an IC50 ratio of less than 3 fold)”.
For the compound `CC(=O)Nc1ccc([C@@H]2CC[C@@H](C)CN2C(=O)C(=O)Nc2cncc(C(N)=O)c2)s1` (single isomer, unassigned) [Compound 704], the IC50 on PRMT5 [1] is > 0.5 µM; on PRMT5 [2], 0.05 to 0.5 µM; at PRMT5 [3], < 0.05 µM; in test [4], > 1 µM; in test [5] (setting [7]), > 1 µM; in test [6] (setting [8]), > 10 µM. In addition, the MTAP intact/deleted ratio entry in test [5] is given as “C (an IC50 ratio of less than 3 fold)”.
As for `Cc1cc(NC(=O)C(=O)N2C[C@@H](C)C(F)(F)C[C@@H]2c2ccc(F)c(F)c2)cnc1N` (single isomer, unassigned) [Compound 705], the IC50 at PRMT5 [1] was 0.05 to 0.5 µM; on PRMT5 [2], < 0.05 µM; on PRMT5 [3], < 0.05 µM; in test [4] it was 0.1 to 1 µM; in test [5] (setting [9]), < 0.1 µM; in test [6] (setting [10]), < 1 µM. Also, the MTAP intact/deleted ratio entry in test [5] is “B (an IC50 ratio greater than or equal to 3 fold but lower than 10 fold)”.
For `C[C@@H]1CN(C(=O)C(=O)Nc2cncc(C(N)=O)c2)[C@@H](c2ccc(F)c(F)c2)CC1(F)F` (single isomer, unassigned) [Compound 706], the IC50 at PRMT5 [1] was > 0.5 µM; at PRMT5 [2], > 0.5 µM; on PRMT5 [3] it was > 0.5 µM; in test [4], > 1 µM; in test [5] (setting [9]) it was > 1 µM; in test [6] (setting [10]), > 10 µM. Further, the MTAP intact/deleted ratio result in test [5] was “B (an IC50 ratio greater than or equal to 3 fold but lower than 10 fold)”.
Regarding `Cc1ccc([C@H]2CC[C@H](C)CN2C(=O)C(=O)Nc2cnc(N)c(C)c2)cn1` (single isomer, unassigned) [Compound 707], the IC50 at PRMT5 [1] is > 0.5 µM; at PRMT5 [2], > 0.5 µM; at PRMT5 [3], > 0.5 µM; in test [4], > 1 µM; in test [5] (setting [9]), > 1 µM; in test [6] (setting [10]), > 10 µM. Also, in test [5], the MTAP intact/deleted ratio result is “B (an IC50 ratio greater than or equal to 3 fold but lower than 10 fold)”.
As to `CCc1cc(NC(=O)C(=O)N2C[C@@H](C)CC[C@@H]2c2ccccc2)cnc1N` (single isomer, unassigned) [Compound 709], the IC50 at PRMT5 [1] was > 0.5 µM; on PRMT5 [2], > 0.5 µM; at PRMT5 [3], 0.05 to 0.5 µM; in test [4], > 1 µM; in test [5] (setting [9]), > 1 µM; in test [6] (setting [10]) it was > 10 µM. In addition, the MTAP intact/deleted ratio result in test [5] is recorded as “C (an IC50 ratio of less than 3 fold)”.
Turning to `CC(=O)Nc1ccc([C@H]2CC[C@H](C)CN2C(=O)C(=O)Nc2cnc(N)c(C)c2)s1` (single isomer, unassigned) [Compound 717], the IC50 on PRMT5 [1] was > 0.5 µM; on PRMT5 [2] it was > 0.5 µM; at PRMT5 [3], > 0.5 µM; in test [4], > 1 µM; in test [5] (setting [9]), > 1 µM; in test [6] (setting [10]), > 10 µM. Besides, in test [5], the MTAP intact/deleted ratio result is recorded as “C (an IC50 ratio of less than 3 fold)”.
As for `C[C@@H]1CN(C(=O)C(=O)Nc2cncc(C(N)=O)c2)[C@@H](c2ccc(F)cc2)CC1(F)F` (single isomer, unassigned) [Compound 718], the IC50 at PRMT5 [1] was > 0.5 µM; on PRMT5 [2], > 0.5 µM; at PRMT5 [3], > 0.5 µM; in test [4] it was > 1 µM; in test [5] (setting [9]), > 1 µM; in test [6] (setting [10]), > 10 µM. Besides, the MTAP intact/deleted ratio result in test [5] is recorded as “C (an IC50 ratio of less than 3 fold)”.
Consider `Cc1nc2cc([C@H]3CC[C@H](C)CN3C(=O)C(=O)Nc3cnc(N)c(C)c3)ccc2s1` (single isomer, unassigned) [Compound 719], for which the IC50 on PRMT5 [1] is 0.05 to 0.5 µM; at PRMT5 [2], < 0.05 µM; at PRMT5 [3], < 0.05 µM; in test [4], 0.1 to 1 µM; in test [5] (setting [9]), < 0.1 µM; in test [6] (setting [10]), < 1 µM. Further, the MTAP intact/deleted ratio result in test [5] is on record as “A (an IC50 ratio greater than or equal to 10 fold)”.
For the compound `CCc1cc(NC(=O)C(=O)N2C[C@H](C)CC[C@H]2c2ccc3c(c2)CCC(=O)N3)cnc1N` (single isomer, unassigned) [Compound 720], the IC50 at PRMT5 [1] was 0.05 to 0.5 µM; on PRMT5 [2] it was < 0.05 µM; at PRMT5 [3], < 0.05 µM; in test [4], 0.1 to 1 µM; in test [5] (setting [9]) it was < 0.1 µM; in test [6] (setting [10]) it was < 1 µM. Also, the MTAP intact/deleted ratio result in test [5] was “A (an IC50 ratio greater than or equal to 10 fold)”.
Consider `CCc1cc(NC(=O)C(=O)N2C[C@@H](C)C(F)(F)C[C@@H]2c2ccc(F)c(F)c2)cnc1N` (single isomer, unassigned) [Compound 721], for which the IC50 at PRMT5 [1] was 0.05 to 0.5 µM; at PRMT5 [2] it was < 0.05 µM; on PRMT5 [3] it was < 0.05 µM; in test [4] it was > 1 µM; in test [5] (setting [9]), < 0.1 µM; in test [6] (setting [10]), < 1 µM. In addition, the MTAP intact/deleted ratio entry in test [5] was “A (an IC50 ratio greater than or equal to 10 fold)”.
As for `CNS(=O)(=O)c1ccc([C@H]2CC[C@H](C)CN2C(=O)C(=O)Nc2cncc(C(N)=O)c2)cc1` (single isomer, unassigned) [Compound 722], the IC50 on PRMT5 [1] was 0.05 to 0.5 µM; on PRMT5 [2], 0.05 to 0.5 µM; at PRMT5 [3], < 0.05 µM; in test [4], > 1 µM; in test [5] (setting [9]) it was > 1 µM; in test [6] (setting [10]), > 10 µM. In addition, the MTAP intact/deleted ratio entry in test [5] is given as “C (an IC50 ratio of less than 3 fold)”.
In the case of `C[C@H]1CC[C@H](c2ccc(S(N)(=O)=O)cc2)N(C(=O)C(=O)Nc2cncc(C(N)=O)c2)C1` (single isomer, unassigned) [Compound 724], the IC50 on PRMT5 [1] is > 0.5 µM; on PRMT5 [2] it was > 0.5 µM; at PRMT5 [3] it was > 0.5 µM; in test [4], > 1 µM; in test [5] (setting [9]), > 1 µM; in test [6] (setting [10]), > 10 µM. In test [5], the MTAP intact/deleted ratio entry is “C (an IC50 ratio of less than 3 fold)”.
Consider `C[C@@H]1CC[C@@H](c2ccc(S(N)(=O)=O)cc2)N(C(=O)C(=O)Nc2cncc(C(N)=O)c2)C1` (single isomer, unassigned) [Compound 725], for which the IC50 at PRMT5 [1] is 0.05 to 0.5 µM; on PRMT5 [2], 0.05 to 0.5 µM; at PRMT5 [3] it was < 0.05 µM; in test [4] it was > 1 µM; in test [5] (setting [9]) it was > 1 µM; in test [6] (setting [10]), > 10 µM. In addition, the MTAP intact/deleted ratio result in test [5] is on record as “C (an IC50 ratio of less than 3 fold)”.
On to `Cc1ncc(NC(=O)C(=O)N2C[C@H](C)CC[C@H]2c2ccc3c(c2)CCC(=O)N3)cc1Cl` (single isomer, unassigned) [Compound 726], for which the IC50 is 0.05 to 0.5 µM on PRMT5 [1]; < 0.05 µM at PRMT5 [2]; < 0.05 µM at PRMT5 [3]; > 1 µM in test [4]; < 0.1 µM in test [5] (setting [9]); < 1 µM in test [6] (setting [10]). Further, the MTAP intact/deleted ratio entry in test [5] was “A (an IC50 ratio greater than or equal to 10 fold)”.
